Source: US8133909B2 (Hoffmann-La Roche Inc., priority 2008, dated 2012)

Molecular target: T1, human orexin-2 (hOX2) receptors (Homo sapiens, UniProt O43614)
T1 construct: expressed in transfected cells
T1 sequence (O43614 1-444): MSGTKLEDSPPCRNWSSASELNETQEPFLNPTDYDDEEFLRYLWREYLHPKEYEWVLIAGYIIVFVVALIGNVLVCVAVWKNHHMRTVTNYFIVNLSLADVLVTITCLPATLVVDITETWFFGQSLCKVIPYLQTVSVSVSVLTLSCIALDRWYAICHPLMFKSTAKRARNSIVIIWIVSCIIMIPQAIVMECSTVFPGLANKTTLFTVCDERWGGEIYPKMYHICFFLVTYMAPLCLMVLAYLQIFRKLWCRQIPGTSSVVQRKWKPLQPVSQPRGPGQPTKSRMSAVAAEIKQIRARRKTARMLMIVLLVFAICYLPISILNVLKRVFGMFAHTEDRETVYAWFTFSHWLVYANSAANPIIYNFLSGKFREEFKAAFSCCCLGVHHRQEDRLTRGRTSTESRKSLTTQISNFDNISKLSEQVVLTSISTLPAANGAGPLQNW
Experiment: Intracellular Ca2+ mobilization assay (FLIPR), antagonism of orexin-A
Format: cell-based
Details: CHO(dHFr-) cells stably expressing hOX2; orexin-A at EC80 as agonist; antagonist applied 25 min before; Kb=IC50/(1+[A]/EC50); read-out: Kb (μM) OX2R (human)
Experimental: Intracellular Ca^2+ Mobilization Assay
The Chinese Hamster Ovary (dHFr—) mutant cell line stably expressing human orexin-1 (hOX1) or human orexin-2 (hOX2) receptors were maintained in Dulbecco's Modified Eagle Medium (1X) with GlutaMax™ 1, 4500 mg/L D-Glucose and Sodium Pyruvate (Catalog No. 31966-021, Invitrogen, Carlsbad, Calif.), 5% dialyzed fetal calf serum (Catalog No. 26400-044), 100 μg/ml penicillin and 100 μg/ml streptomycin. The cells were seeded at 5×10^4 cells/well in the poly-D-lysine treated, 96-well, black/clear-bottomed plates (Catalog No. BD356640, BD Biosciences, Palo Alto, Calif.). 24 h later, the cells were loaded for 1 h at 37° C. with 4 μM Flou-4 acetoxymethyl ester (Catalog No. F-14202, Molecular Probes, Eugene, Oreg.) in FLIPR buffer (1×HBSS, 20 mM HEPES, 2.5 mM Probenecid). Hanks' Balanced Salt Solution (HBSS) (10×) (catalog No. 14065-049) and HEPES (1M) (catalog No. 15630-056) were purchased from Invitrogen, Carlsbad, Calif. Probenecid (250 mM) (catalog No. P8761) was from Sigma, Buchs, Switzerland. The cells were washed five times with FLIPR buffer to remove excess dye and intracellular calcium mobilization, [Ca^2+]i were measured using a Fluorometric Imaging Plate Reader (FLIPR-96, Molecular Devices, Menlo Park, Calif.) as described previously (Malherbe et al., Mol. Pharmacol., 64, 823-832, 2003). Orexin A (catalog No. 1455, Toris Cookson Ltd, Bristol, UK) was used as agonist. Orexin A (50 mM stock solution in DMSO) was diluted in FLIPR buffer +0.1% BSA. The EC50 and EC80 values of orexin-A were measured daily from standard agonist concentration-response curves in CHO(dHFr—)—OX1R and —OX2R cell lines. All compounds were dissolved in 100% DMSO. Inhibition curves were determined by addition of 11 concentrations (0.0001-10 μM) of inhibitory compounds and using EC80 value of orexin-A as agonist (a concentration which gave 80% of max agonist response, determined daily). The antagonists were applied 25 min (incubation at 37° C.) before the application of the agonist. Responses were measured as peak increase in fluorescence minus basal, normalized to the maximal stimulatory effect induced by EC80 value of orexin-A or orexin- B. Inhibition curves were fitted according to the Hill equation: y=100/(1+(x/IC50)^nH), where nH=slope factor using Excel-fit 4 software (Microsoft). Kb values were calculated according to the following equation Kb=IC50/(1+[A]/EC50) where A is the concentration of agonist added which is very close to agonist EC80 value, and IC50 and EC50 values were derived from the antagonist inhibition and orexin-A or B agonist curves, respectively.

| Compound | Kb [µM] |
| --- | --- |
| Cc1nn(C)c2ccc(N(CCc3ccc(C(F)(F)F)nc3)C(=O)[C@@H](O)c3ccc(F)cc3)cc12 [Example 107, (S)—N-(1,3-Dimethyl-1H-indazol-5-yl)-2-(4-fluoro-phenyl)-2-hydroxy-N-[2-(6-trifluoromethyl-pyridin-3-yl)-ethyl]-acetamide] | 0.0046 |
| Cc1cc(CCN(C(=O)[C@@H](O)c2ccccc2)c2ccc(C)c(C)c2)on1 [Example 70, (S)—N-(3,4-Dimethyl-phenyl)-2-hydroxy-N-[2-(3-methyl-isoxazol-5-yl)-ethyl]-2-phenyl-acetamide] | 0.0863 |
| Cc1n[nH]c2ccc(N(CCc3ccc(C(F)(F)F)nc3)C(=O)[C@@H](O)c3ccc(F)cc3)cc12 [Example 106, (S)-2-(4-Fluoro-phenyl)-2-hydroxy-N-(3-methyl-1H-indazol-5-yl)-N-[2-(6-trifluoromethyl-pyridin-3-yl)-ethyl]-acetamide] | 0.0249 |
| Cc1ccc(N(CCc2ccc(C(F)(F)F)nc2)C(=O)Cc2ccccc2)cc1C [Example 17, N-(3,4-Dimethyl-phenyl)-2-phenyl-N-[2-(6-trifluoromethyl-pyridin-3-yl)-ethyl]-acetamide] | 0.0362 |
| O=C([C@@H](O)c1ccc(F)cc1)N(CCc1ccc(C(F)(F)F)cn1)c1ccc2c(c1)CCC2 [Example 86, (S)-2-(4-Fluoro-phenyl)-2-hydroxy-N-indan-5-yl-N-[2-(5-trifluoromethyl-pyridin-2-yl)-ethyl]-acetamide] | 0.0378 |
| O=C([C@H](O)c1ccc(F)cc1)N(CCc1ccc(C(F)(F)F)cn1)c1ccc2c(c1)CCC2 (racemic) [Example 73, (R,S)-2-(4-Fluoro-phenyl)-2-hydroxy-N-indan-5-yl-N-[2-(5-trifluoromethyl-pyridin-2-yl)-ethyl]-acetamide] | 0.0313 |
| Cc1cc(N(CCc2ccc(C(F)(F)F)cn2)C(=O)C(O)c2ccc(F)cc2)ccc1F (racemic) [Example 77, (R,S)—N-(4-Fluoro-3-methyl-phenyl)-2-(4-fluoro-phenyl)-2-hydroxy-N-[2-(5-trifluoromethyl-pyridin-2-yl)-ethyl]-acetamide] | 0.0075 |
| COc1cccc(N(CCc2ccc(C(F)(F)F)cn2)C(=O)C(O)c2ccc(F)cc2)c1 (racemic) [Example 76, (R,S)-2-(4-Fluoro-phenyl)-2-hydroxy-N-(3-methoxy-phenyl)-N-[2-(5-trifluoromethyl-pyridin-2-yl)-ethyl]-acetamide] | 0.026 |
| O=C([C@@H](O)c1ccc(F)cc1)N(CCc1ccc(C(F)(F)F)nc1)c1ccc2c(c1)C(O)CCO2 (single isomer, unassigned) [Example 102, (S)-2-(4-Fluoro-phenyl)-2-hydroxy-N-((S or R)-4-hydroxy-chroman-6-yl)-N-[2-(6-trifluoromethyl-pyridin-3-yl)-ethyl]-acetamide] | 0.0116 |
| O=C([C@@H](O)c1ccccc1)N(CCc1ccc(C(F)(F)F)nc1)c1cnc2ccccc2c1 [Example 49] | 0.0361 |
| COc1ccc(N(CCc2ccc(C(F)(F)F)cn2)C(=O)C(O)c2ccc(F)cc2)cc1C (racemic) [Example 93, (R,S)-2-(4-Fluoro-phenyl)-2-hydroxy-N-(4-methoxy-3-methyl-phenyl)-N-[2-(5-trifluoromethyl-pyridin-2-yl)-ethyl]-acetamide] | 0.0146 |
| COc1cccc(N(CCc2ccc(C(F)(F)F)nc2)C(=O)[C@@H](O)c2ccccc2)c1 [Example 56, (S)-2-Hydroxy-N-(3-methoxy-phenyl)-2-phenyl-N-[2-(6-trifluoromethyl-pyridin-3-yl)-ethyl]-acetamide] | 0.0176 |
| CC(=O)O[C@H](C(=O)N(CCc1ccc(C(F)(F)F)cn1)c1ccc(C)c(C)c1)c1ccccc1 [Example 65, Acetic acid (S)-{(3,4-dimethyl-phenyl)-[2-(5-trifluoromethyl-pyridin-2-yl)-ethyl]-carbamoyl}-phenyl-methyl ester] | 0.0475 |
| O=C([C@@H](O)c1ccccc1)N(CCc1ccc(C(F)(F)F)nc1)c1ccc2c(c1)[C@@H](O)CCO2 [Example 63, (S)-2-Hydroxy-N-((S)-4-hydroxy-chroman-6-yl)-2-phenyl-N-[2-(6-trifluoromethyl-pyridin-3-yl)-ethyl]-acetamide] | 0.0243 |
| COc1cc(N(CCc2ccc(C(F)(F)F)cn2)C(=O)[C@@H](O)c2ccc(F)cc2)ccc1F [Example 92, (S)—N-(4-Fluoro-3-methoxy-phenyl)-2-(4-fluoro-phenyl)-2-hydroxy-N-[2-(5-trifluoromethyl-pyridin-2-yl)-ethyl]-acetamide] | 0.0146 |
| N[C@H](C(=O)N(CCc1ccc(C(F)(F)F)nc1)c1ccc2c(c1)CCCC2)c1ccccc1 [Example 9, (S)-2-Amino-2-phenyl-N-(5,6,7,8-tetrahydro-naphthalen-2-yl)-N-[2-(6-trifluoromethyl-pyridin-3-yl)-ethyl]-acetamide] | 0.0006 |
| Cc1ccc(N(CCc2ccc(C(F)(F)F)nc2)C(=O)[C@@H](N)c2ccccc2)cc1C [Example 1, (S)-2-Amino-N-(3,4-dimethyl-phenyl)-2-phenyl-N-[2-(6-trifluoromethyl-pyridin-3-yl)-ethyl]-acetamide] | 0.0007 |
| Cc1ccc(N(CCc2ccc(C(F)(F)F)nc2)C(=O)[C@@H](O)c2ccccc2)cc1C [Example 2, (S)—N-(3,4-Dimethyl-phenyl)-2-hydroxy-2-phenyl-N-[2-(6-trifluoromethyl-pyridin-3-yl)-ethyl]-acetamide] | 0.0025 |
| Cc1ccc(N(CCc2ccc(C(F)(F)F)nc2)C(=O)C(=O)c2ccccc2)cc1C [Example 20, N-(3,4-Dimethyl-phenyl)-2-oxo-2-phenyl-N-[2-(6-trifluoromethyl-pyridin-3-yl)-ethyl]-acetamide] | 0.0916 |
| Cc1ccc(N(CCc2ccc(C(F)(F)F)nc2)C(=O)C(C)(O)c2ccccc2)cc1C (racemic) [Example 27, (R,S)—N-(3,4-Dimethyl-phenyl)-2-hydroxy-2-phenyl-N-[2-(6-trifluoromethyl-pyridin-3-yl)-ethyl]-propionamide] | 0.068 |
| Cc1ccc(N(CCc2ccc(Cl)cn2)C(=O)[C@@H](O)c2ccccc2)cc1C [Example 66, (S)—N-[2-(5-Chloro-pyridin-2-yl)-ethyl]-N-(3,4-dimethyl-phenyl)-2-hydroxy-2-phenyl-acetamide] | 0.0057 |
| O=C([C@@H](O)c1ccc(F)cc1)N(CCc1ccc(C(F)(F)F)nc1)c1ccc2c(c1)CCCC2 [Example 60, (S)-2-(4-Fluoro-phenyl)-2-hydroxy-N-(5,6,7,8-tetrahydro-naphthalen-2-yl)-N-[2-(6-trifluoromethyl-pyridin-3-yl)-ethyl]-acetamide] | 0.0053 |
| Cc1ccc(N(CCc2ccc(C(F)(F)F)cn2)C(=O)[C@@H](O)c2ccccc2)cc1C [Example 26, (S)—N-(3,4-Dimethyl-phenyl)-2-hydroxy-2-phenyl-N-[2-(5-trifluoromethyl-pyridin-2-yl)-ethyl]-acetamide] | 0.0038 |
| COc1ccc(N(CCc2ccc(C(F)(F)F)cc2)C(=O)C(N)c2ccccc2)cn1 (racemic) [Example 36, (R,S)-2-Amino-N-(6-methoxy-pyridin-3-yl)-2-phenyl-N-[2-(4-trifluoromethyl-phenyl)-ethyl]-acetamide] | 0.061 |
| Cc1ccc(N(CCc2ccc(C(F)(F)F)cn2)C(=O)C(O)c2ccc(F)cc2)cc1OC(F)F (racemic) [Example 95, (R,S)-N-(3-Difluoromethoxy-4-methyl-phenyl)-2-(4-fluoro-phenyl)-2-hydroxy-N-[2-(5-trifluoromethyl-pyridin-2-yl)-ethyl]-acetamide] | 0.0195 |
